Test results from patent US20230257396A1, “MACROCYCLES AND THEIR USE” (BLOSSOMHILL THERAPEUTICS, INC., priority 2020, published 2023).

Legend:
Assay in all cases: KINOMEscan kinase binding assay (Eurofins/DiscoveRx), % Ctrl
Conditions in all cases: 1 μM
kinases [1] = target: T1, kinases (Homo sapiens, UniProt P00533, DEL752-759)
T1 construct: purchased Eurofins/DiscoveRx; host or cells: E. coli BL21-derived host (T7 phage display) for most kinases; HEK-293 for the rest
In short: (§1)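 Competition binding, 1 h RT: phage-tagged or HEK-293-expressed DNA-tagged kinase + immobilized ligand + compound. Eluate kinase by qPCR. % Ctrl = (test − positive ctrl)/(negative ctrl − positive ctrl) × 100; lower means stronger binding.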

kinases [2] = target: T2, kinases (Homo sapiens, UniProt P00519, E255K)
T2 construct: purchased Eurofins/DiscoveRx; host or cells: E. coli BL21-derived host (T7 phage display) for most kinases; HEK-293 for the rest
In short: as §1

kinases [3] = target: T3, kinases (Homo sapiens, UniProt P00519, T315I)
T3 construct: purchased Eurofins/DiscoveRx; host or cells: E. coli BL21-derived host (T7 phage display) for most kinases; HEK-293 for the rest
In short: as §1

kinases [4] = target: T4, kinases (Homo sapiens, UniProt P07949)
T4 construct: purchased Eurofins/DiscoveRx; host or cells: E. coli BL21-derived host (T7 phage display) for most kinases; HEK-293 for the rest
T4 sequence (P07949 29-1114): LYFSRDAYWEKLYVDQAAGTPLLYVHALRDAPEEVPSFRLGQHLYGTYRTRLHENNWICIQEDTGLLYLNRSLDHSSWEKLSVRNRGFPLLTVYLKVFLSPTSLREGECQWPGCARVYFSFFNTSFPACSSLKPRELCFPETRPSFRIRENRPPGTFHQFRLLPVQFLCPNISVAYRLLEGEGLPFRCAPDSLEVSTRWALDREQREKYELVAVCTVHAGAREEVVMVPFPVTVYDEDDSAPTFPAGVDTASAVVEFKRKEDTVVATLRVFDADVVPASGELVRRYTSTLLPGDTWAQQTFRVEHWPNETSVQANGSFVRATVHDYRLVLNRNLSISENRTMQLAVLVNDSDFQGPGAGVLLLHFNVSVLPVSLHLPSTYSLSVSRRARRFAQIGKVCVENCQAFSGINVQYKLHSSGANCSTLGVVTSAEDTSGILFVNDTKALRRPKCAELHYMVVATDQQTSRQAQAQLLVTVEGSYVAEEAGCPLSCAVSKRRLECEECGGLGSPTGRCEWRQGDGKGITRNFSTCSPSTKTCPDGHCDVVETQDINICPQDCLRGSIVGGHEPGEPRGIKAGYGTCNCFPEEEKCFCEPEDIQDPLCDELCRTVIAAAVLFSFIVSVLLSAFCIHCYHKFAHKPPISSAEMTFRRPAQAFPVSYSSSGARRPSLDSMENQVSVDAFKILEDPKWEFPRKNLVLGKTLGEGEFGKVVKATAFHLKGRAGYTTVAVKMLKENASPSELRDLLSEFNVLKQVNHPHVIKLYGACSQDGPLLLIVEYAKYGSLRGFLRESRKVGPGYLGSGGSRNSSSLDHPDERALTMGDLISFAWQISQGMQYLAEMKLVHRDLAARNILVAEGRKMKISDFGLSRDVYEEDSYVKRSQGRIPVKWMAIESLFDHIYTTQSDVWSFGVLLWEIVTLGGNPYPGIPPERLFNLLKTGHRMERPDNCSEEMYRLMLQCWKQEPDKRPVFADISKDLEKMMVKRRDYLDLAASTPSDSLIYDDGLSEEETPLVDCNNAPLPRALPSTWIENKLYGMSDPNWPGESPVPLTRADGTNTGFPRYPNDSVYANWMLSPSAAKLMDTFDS
In short: as §1

kinases [5] = target: T5, kinases (Homo sapiens, UniProt P10721, D816H)
T5 construct: purchased Eurofins/DiscoveRx; host or cells: E. coli BL21-derived host (T7 phage display) for most kinases; HEK-293 for the rest
T5 sequence (P10721 26-976 D816H): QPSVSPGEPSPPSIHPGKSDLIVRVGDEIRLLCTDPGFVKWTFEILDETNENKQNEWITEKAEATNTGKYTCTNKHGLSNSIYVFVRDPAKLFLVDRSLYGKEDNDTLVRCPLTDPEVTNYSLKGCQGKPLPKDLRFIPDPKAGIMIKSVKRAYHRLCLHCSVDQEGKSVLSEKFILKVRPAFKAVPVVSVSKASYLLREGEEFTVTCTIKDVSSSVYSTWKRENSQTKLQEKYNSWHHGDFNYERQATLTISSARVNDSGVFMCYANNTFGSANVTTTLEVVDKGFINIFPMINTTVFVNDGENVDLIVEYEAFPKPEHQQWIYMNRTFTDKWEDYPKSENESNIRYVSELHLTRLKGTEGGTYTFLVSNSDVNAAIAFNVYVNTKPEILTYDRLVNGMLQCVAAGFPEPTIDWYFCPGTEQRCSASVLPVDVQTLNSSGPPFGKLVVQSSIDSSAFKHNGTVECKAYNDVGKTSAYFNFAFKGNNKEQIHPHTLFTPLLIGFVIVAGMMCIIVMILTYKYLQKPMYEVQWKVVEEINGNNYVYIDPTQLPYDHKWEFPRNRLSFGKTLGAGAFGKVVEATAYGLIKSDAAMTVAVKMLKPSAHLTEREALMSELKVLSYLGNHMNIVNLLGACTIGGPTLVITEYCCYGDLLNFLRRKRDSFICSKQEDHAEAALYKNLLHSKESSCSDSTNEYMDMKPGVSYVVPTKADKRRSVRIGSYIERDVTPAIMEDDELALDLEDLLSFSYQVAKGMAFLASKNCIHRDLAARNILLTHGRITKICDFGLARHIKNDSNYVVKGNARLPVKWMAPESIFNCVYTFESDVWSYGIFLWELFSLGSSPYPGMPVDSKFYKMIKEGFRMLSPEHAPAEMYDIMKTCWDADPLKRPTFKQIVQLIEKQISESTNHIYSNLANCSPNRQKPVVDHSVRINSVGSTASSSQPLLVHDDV
In short: as §1

kinases [6] = target: T6, kinases (Homo sapiens, UniProt P00519, F317I)
T6 construct: purchased Eurofins/DiscoveRx; host or cells: E. coli BL21-derived host (T7 phage display) for most kinases; HEK-293 for the rest
In short: as §1

kinases [7] = target: T7, kinases (Homo sapiens, UniProt P10721, L576P)
T7 construct: purchased Eurofins/DiscoveRx; host or cells: E. coli BL21-derived host (T7 phage display) for most kinases; HEK-293 for the rest
T7 sequence (P10721 26-976 L576P): as the sequence (P10721 26-976 D816H) above, with L551P, H791D counted along it
In short: as §1

kinases [8] = target: T8, kinases (Homo sapiens, UniProt P07949, M918T)
T8 construct: purchased Eurofins/DiscoveRx; host or cells: E. coli BL21-derived host (T7 phage display) for most kinases; HEK-293 for the rest
T8 sequence (P07949 29-1114 M918T): as the sequence (P07949 29-1114) above, with M890T counted along it
In short: as §1

kinases [9] = target: T9, kinases (Homo sapiens, UniProt P09619)
T9 construct: purchased Eurofins/DiscoveRx; host or cells: E. coli BL21-derived host (T7 phage display) for most kinases; HEK-293 for the rest
T9 sequence (P09619 33-1106): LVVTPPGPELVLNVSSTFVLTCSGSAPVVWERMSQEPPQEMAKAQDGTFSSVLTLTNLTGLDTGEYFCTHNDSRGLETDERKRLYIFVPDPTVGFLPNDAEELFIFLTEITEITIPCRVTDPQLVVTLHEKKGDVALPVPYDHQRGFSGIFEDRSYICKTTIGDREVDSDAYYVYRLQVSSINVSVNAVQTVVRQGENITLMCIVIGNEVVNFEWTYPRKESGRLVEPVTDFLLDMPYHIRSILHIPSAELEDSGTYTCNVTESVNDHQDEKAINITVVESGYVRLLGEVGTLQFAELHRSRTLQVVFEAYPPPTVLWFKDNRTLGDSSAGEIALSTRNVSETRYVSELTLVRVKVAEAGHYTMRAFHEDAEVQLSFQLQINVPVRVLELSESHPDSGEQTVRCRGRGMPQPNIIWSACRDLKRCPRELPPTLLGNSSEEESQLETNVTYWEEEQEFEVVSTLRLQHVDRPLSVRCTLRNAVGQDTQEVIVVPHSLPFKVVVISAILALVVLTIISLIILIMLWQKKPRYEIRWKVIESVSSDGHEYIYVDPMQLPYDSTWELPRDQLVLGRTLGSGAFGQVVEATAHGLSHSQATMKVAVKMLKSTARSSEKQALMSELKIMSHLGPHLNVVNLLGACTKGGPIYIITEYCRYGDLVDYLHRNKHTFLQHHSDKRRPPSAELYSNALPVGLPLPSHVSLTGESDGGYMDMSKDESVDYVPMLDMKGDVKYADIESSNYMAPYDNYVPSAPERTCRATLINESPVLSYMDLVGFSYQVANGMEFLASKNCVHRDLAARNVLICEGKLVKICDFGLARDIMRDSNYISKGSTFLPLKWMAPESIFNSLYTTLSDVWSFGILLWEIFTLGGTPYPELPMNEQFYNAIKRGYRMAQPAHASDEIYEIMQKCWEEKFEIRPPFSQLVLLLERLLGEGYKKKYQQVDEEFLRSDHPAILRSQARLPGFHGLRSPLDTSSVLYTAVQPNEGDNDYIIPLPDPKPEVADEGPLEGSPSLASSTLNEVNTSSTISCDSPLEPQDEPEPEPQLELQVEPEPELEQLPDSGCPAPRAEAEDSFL
In short: as §1

kinases [10] = target: T10, kinases (Homo sapiens, UniProt P16234)
T10 construct: purchased Eurofins/DiscoveRx; host or cells: E. coli BL21-derived host (T7 phage display) for most kinases; HEK-293 for the rest
T10 sequence (P16234 24-1089): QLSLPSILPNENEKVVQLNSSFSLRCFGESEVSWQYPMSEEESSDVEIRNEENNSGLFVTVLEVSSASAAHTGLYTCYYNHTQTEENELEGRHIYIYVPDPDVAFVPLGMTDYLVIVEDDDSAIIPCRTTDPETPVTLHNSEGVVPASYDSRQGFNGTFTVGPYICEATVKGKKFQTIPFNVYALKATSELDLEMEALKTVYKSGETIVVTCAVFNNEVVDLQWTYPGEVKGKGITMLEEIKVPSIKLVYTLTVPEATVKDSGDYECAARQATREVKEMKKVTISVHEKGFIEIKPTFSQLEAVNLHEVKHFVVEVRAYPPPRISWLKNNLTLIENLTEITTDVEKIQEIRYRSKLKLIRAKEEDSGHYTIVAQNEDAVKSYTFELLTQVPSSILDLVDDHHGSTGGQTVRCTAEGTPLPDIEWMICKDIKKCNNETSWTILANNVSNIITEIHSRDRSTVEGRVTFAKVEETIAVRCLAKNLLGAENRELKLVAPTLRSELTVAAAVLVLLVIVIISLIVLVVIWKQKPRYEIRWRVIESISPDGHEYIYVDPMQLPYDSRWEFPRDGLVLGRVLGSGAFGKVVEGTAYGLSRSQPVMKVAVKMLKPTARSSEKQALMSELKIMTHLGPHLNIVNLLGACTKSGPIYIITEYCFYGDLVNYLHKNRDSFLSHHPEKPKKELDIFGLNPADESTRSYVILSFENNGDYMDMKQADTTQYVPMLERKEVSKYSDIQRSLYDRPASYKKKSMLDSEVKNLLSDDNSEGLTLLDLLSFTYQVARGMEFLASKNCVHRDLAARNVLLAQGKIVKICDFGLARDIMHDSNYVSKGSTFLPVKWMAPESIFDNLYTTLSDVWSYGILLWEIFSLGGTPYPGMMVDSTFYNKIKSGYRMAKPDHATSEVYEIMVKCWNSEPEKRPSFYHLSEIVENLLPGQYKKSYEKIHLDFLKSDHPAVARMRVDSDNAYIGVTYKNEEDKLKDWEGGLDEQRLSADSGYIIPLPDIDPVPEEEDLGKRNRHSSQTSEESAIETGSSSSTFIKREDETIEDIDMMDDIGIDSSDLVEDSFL
In short: as §1

kinases [11] = target: T11, kinases (Homo sapiens, UniProt P00533, L858R)
T11 construct: purchased Eurofins/DiscoveRx; host or cells: E. coli BL21-derived host (T7 phage display) for most kinases; HEK-293 for the rest
In short: as §1

kinases [12] = target: T12, kinases (Homo sapiens, UniProt P00519, H396P)
T12 construct: purchased Eurofins/DiscoveRx; host or cells: E. coli BL21-derived host (T7 phage display) for most kinases; HEK-293 for the rest
In short: as §1

kinases [13] = target: T13, kinases (Homo sapiens, UniProt P36888, D835Y)
T13 construct: purchased Eurofins/DiscoveRx; host or cells: E. coli BL21-derived host (T7 phage display) for most kinases; HEK-293 for the rest
T13 sequence (P36888 27-993 D835Y): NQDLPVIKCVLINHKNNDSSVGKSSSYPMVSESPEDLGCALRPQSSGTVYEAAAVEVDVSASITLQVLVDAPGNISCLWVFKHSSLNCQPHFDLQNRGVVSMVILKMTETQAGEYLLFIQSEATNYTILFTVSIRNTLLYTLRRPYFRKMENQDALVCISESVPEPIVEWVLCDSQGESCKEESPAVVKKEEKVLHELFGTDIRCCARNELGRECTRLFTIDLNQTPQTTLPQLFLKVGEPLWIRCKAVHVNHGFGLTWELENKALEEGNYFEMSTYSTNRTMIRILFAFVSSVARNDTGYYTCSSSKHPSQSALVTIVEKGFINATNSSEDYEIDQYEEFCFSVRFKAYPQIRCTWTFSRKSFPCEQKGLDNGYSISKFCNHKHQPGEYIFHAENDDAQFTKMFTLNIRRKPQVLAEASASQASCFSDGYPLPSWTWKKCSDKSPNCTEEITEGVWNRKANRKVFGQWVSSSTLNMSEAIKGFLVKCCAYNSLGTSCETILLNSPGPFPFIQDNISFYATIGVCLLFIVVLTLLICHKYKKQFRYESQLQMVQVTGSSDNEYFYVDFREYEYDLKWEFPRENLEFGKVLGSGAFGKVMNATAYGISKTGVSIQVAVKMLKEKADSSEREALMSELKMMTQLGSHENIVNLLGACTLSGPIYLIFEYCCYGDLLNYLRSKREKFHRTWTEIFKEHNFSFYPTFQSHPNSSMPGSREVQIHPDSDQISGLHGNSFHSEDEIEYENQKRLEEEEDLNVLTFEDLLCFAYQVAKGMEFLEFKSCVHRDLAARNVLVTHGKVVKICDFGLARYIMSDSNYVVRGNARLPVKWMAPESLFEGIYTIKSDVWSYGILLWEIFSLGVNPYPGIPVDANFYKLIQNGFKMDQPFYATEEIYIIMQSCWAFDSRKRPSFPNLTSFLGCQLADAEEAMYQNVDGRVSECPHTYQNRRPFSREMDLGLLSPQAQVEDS
In short: as §1

kinases [14] = target: T14, kinases (Homo sapiens, UniProt P00533, G719S)
T14 construct: purchased Eurofins/DiscoveRx; host or cells: E. coli BL21-derived host (T7 phage display) for most kinases; HEK-293 for the rest
In short: as §1

kinases [15] = target: T15, kinases (Homo sapiens, UniProt P10721, V559D)
T15 construct: purchased Eurofins/DiscoveRx; host or cells: E. coli BL21-derived host (T7 phage display) for most kinases; HEK-293 for the rest
T15 sequence (P10721 26-976 V559D): as the sequence (P10721 26-976 D816H) above, with V534D, H791D counted along it
In short: as §1

Row | Compound | % Ctrl, EGFR(S752-I759del) (kinases [1]; EGFR(S752-I759del)) [% Ctrl] | % Ctrl, ABL1(E255K)-phosphorylated (kinases [2]; ABL1(E255K)-phosphorylated) [% Ctrl] | % Ctrl, ABL1(T315I)-nonphosphorylated (kinases [3]; ABL1(T315I)-nonphosphorylated) [% Ctrl] | % Ctrl, ABL1(T315I)-phosphorylated (kinases [3]; ABL1(T315I)-phosphorylated) [% Ctrl] | % Ctrl, RET (kinases [4]; RET) [% Ctrl] | % Ctrl, KIT(D816H) (kinases [5]; KIT(D816H)) [% Ctrl] | % Ctrl, ABL1(F317I)-nonphosphorylated (kinases [6]; ABL1(F317I)-nonphosphorylated) [% Ctrl] | % Ctrl, ABL1(F317I)-phosphorylated (kinases [6]; ABL1(F317I)-phosphorylated) [% Ctrl] | % Ctrl, KIT(L576P) (kinases [7]; KIT(L576P)) [% Ctrl] | % Ctrl, RET(M918T) (kinases [8]; RET(M918T)) [% Ctrl] | % Ctrl, PDGFRB (kinases [9]; PDGFRB) [% Ctrl] | % Ctrl, PDGFRA (kinases [10]; PDGFRA) [% Ctrl] | % Ctrl, EGFR(L858R) (kinases [11]; EGFR(L858R)) [% Ctrl] | % Ctrl, ABL1(H396P)-nonphosphorylated (kinases [12]; ABL1(H396P)-nonphosphorylated) [% Ctrl] | % Ctrl, ABL1(H396P)-phosphorylated (kinases [12]; ABL1(H396P)-phosphorylated) [% Ctrl] | % Ctrl, FLT3(D835Y) (kinases [13]; FLT3(D835Y)) [% Ctrl] | % Ctrl, EGFR(G719S) (kinases [14]; EGFR(G719S)) [% Ctrl] | % Ctrl, KIT(V559D) (kinases [15]; KIT(V559D)) [% Ctrl] | further results
1 | Cc1cc2c([nH]1)/C=C1\C(=O)Nc3ccc(cc31)OCCOCCNC2=O [Ex. 129, [16a(17)Z]-2-methyl-6,7,9,10-tetrahydro-1H-12,14-(ethanediylidene)dipyrrolo[3,2-i:3′,4′-l][1,4,7]dioxazacyclopentadecine-4,16(5H,15H)-dione] | 78 | 89 | 92 | 91 | 100 | 96 | 94 | 100 | 98 | 100 | 100 | 100 | 100 | 87 | 93 | 9.1 | 97 | 98 | 
2 | Cc1cc2c([nH]1)/C=C1\C(=O)Nc3ccc(cc31)-c1cnn(C)c1OCCCN(C)C2=O [Ex. 166, [3a(4)Z]-9,14-dimethyl-9,10,11,12-tetrahydro-14H-1,17-(ethanediylidene)pyrazolo[4,3-n]dipyrrolo[3,2-g:3′,4′-j][1,5]oxazacyclopentadecine-3,8(2H,5H)-dione] |  |  |  |  |  |  |  |  |  |  |  |  |  |  |  |  |  |  | % Ctrl, EGFR(S752-I759del) (kinases [1]; target EGFR(S752-I759del)): 93 % Ctrl; % Ctrl, ABL1(E255K)-phosphorylated (kinases [2]; target ABL1(E255K)-phosphorylated): 1.8 % Ctrl; % Ctrl, ABL1(T315I)-nonphosphorylated (kinases [3]; target ABL1(T315I)-nonphosphorylated): 1.4 % Ctrl; % Ctrl, ABL1(T315I)-phosphorylated (kinases [3]; target ABL1(T315I)-phosphorylated): 1.2 % Ctrl; % Ctrl, RET (kinases [4]; target RET): 7.1 % Ctrl; % Ctrl, KIT(D816H) (kinases [5]; target KIT(D816H)): 10 % Ctrl; % Ctrl, ABL1(F317I)-nonphosphorylated (kinases [6]; target ABL1(F317I)-nonphosphorylated): 80 % Ctrl; % Ctrl, ABL1(F317I)-phosphorylated (kinases [6]; target ABL1(F317I)-phosphorylated): 31 % Ctrl; % Ctrl, KIT(L576P) (kinases [7]; target KIT(L576P)): 34 % Ctrl; % Ctrl, RET(M918T) (kinases [8]; target RET(M918T)): 2.9 % Ctrl; % Ctrl, PDGFRB (kinases [9]; target PDGFRB): 16 % Ctrl; % Ctrl, PDGFRA (kinases [10]; target PDGFRA): 50 % Ctrl; % Ctrl, EGFR(L858R) (kinases [11]; target EGFR(L858R)): 85 % Ctrl; % Ctrl, ABL1(H396P)-nonphosphorylated (kinases [12]; target ABL1(H396P)-nonphosphorylated): 0.7 % Ctrl; % Ctrl, ABL1(H396P)-phosphorylated (kinases [12]; target ABL1(H396P)-phosphorylated): 4.3 % Ctrl; % Ctrl, FLT3(D835Y) (kinases [13]; target FLT3(D835Y)): 1.9 % Ctrl; % Ctrl, EGFR(G719S) (kinases [14]; target EGFR(G719S)): 99 % Ctrl; % Ctrl, KIT(V559D) (kinases [15]; target KIT(V559D)): 54 % Ctrl
3 | Cc1cc2c([nH]1)/C=C1\C(=O)Nc3ccc(cc31)CN(C)C(=O)COCCNC2=O [Ex.111, [17a(18)Z]-2,11-dimethyl-6,7,11,12-tetrahydro-1H-13,15-(ethanediylidene)dipyrrolo[3,2-f:3′,4′-i][1,4,14]oxadiazacyclohexadecine-4,10,17(5H,9H,16H)-trione] | 54 | 42 | 90 | 64 | 94 | 7 | 89 | 100 | 98 | 76 | 88 | 95 | 78 | 62 | 61 | 9.1 | 77 | 97 | 
